ChEMBL document CHEMBL1201862, “PubChem BioAssay data set” (2004)
The source made the active and inactive calls.

Columns and labels:
[1] = target: Eukaryotic translation initiation factor 4E (Mus musculus, UniProt P63073); experiment: blockers of eIF4G binding by eIF4E – biochemical, TR-FRET, dose response (AID 855); format: functional;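 note: potency for disrupting eIF4E binding to eIF4GI seen as loss of FRET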
Prothrombin = Prothrombin (Bos taurus, UniProt P00735); experiment: thrombin protease inhibitors – biochemical, fluorescence polarization, uHTS hits, dose response (AID 602369); format: functional
Large T antigen = Large T antigen (Simian virus 40, UniProt P03070); format: functional, Betapolyomavirus macacae;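 note: Confirmatory-stage PubChem screen for compounds that inhibit SV40 T antigen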
[2] = target: 72 kDa type IV collagenase (Homo sapiens, UniProt P08253); experiment: Dose Response validation of uHTS RPN11 inhibitor hits using a MMP-2 Fluorescence assay.; format: functional
[3] = target: DNA (cytosine-5)-methyltransferase 1 (Homo sapiens, UniProt P26358); experiment: inhibition of DNA methylation by DNMT1 – biochemical, fluorescent molecular beacon, confirmation (AID 602386); format: functional
[4] = target: T1, Histone-lysine N-methyltransferase NSD2 (Homo sapiens, UniProt O96028); format: biochemical
T1 sequence (O96028 whole entry): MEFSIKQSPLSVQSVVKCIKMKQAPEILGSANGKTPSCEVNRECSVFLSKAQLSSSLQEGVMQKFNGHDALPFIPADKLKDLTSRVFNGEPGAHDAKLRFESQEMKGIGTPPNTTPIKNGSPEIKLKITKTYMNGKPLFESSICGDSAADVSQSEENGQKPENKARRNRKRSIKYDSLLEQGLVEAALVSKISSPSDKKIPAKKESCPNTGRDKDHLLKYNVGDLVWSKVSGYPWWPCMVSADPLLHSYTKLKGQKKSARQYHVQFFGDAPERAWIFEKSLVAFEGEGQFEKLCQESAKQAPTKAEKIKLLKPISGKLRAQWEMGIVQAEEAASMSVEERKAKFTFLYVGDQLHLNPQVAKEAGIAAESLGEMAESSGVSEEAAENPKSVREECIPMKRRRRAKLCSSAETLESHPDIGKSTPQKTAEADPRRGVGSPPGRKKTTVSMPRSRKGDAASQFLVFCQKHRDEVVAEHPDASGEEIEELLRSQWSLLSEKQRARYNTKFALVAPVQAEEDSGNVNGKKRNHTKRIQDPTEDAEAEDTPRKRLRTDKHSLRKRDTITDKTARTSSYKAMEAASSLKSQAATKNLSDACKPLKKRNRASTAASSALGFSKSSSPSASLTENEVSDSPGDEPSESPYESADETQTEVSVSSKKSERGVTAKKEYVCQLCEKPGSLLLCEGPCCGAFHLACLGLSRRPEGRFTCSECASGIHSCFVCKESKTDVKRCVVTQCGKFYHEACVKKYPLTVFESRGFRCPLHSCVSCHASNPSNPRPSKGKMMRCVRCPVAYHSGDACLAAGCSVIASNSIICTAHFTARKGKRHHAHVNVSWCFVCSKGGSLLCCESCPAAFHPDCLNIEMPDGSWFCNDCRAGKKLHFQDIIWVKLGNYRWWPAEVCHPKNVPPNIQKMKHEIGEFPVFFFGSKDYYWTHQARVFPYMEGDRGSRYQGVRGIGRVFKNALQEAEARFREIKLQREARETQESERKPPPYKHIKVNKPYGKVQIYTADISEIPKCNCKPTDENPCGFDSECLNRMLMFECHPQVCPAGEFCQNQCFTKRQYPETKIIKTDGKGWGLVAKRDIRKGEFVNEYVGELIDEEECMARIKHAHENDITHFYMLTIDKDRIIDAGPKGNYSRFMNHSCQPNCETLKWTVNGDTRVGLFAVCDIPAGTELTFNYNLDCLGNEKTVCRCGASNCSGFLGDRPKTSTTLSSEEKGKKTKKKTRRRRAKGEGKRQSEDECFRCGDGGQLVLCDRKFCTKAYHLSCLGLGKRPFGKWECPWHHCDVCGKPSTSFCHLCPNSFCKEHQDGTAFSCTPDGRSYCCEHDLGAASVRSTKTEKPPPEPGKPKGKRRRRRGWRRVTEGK

[5] = target: Induced myeloid leukemia cell differentiation protein Mcl-1 (Homo sapiens, UniProt Q07820); format: functional
Genome polyprotein = Genome polyprotein (dengue virus type 2, UniProt P29990); experiment: flavivirus cap methylation enzyme inhibition – biochemical, confirmation dose response, primary screen (AID 588689); format: functional
[6] = target: 26S proteasome non-ATPase regulatory subunit 14 (Homo sapiens, UniProt O00487); experiment: inhibition of proteasome subunit RPN11 – biochemical, fluorescence polarization, uHTS hits, confirmation (AID 602368); format: functional
Aurora kinase A = Aurora kinase A (Homo sapiens, UniProt O14965); format: functional;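 note: value from the Navigating the Kinome kinase panel profiling, panel entry STK6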
Aurora kinase B = Aurora kinase B (Homo sapiens, UniProt Q96GD4); format: functional
Streptococcus = experiment: GAS UMAA2166 growth inhibition – luminescence, BacTiterGlo, counter-screen for streptokinase expression inhibitor project, dose response (AID 1915); format: functional, organism-based; settings: Streptococcus;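 note: potency for reduction of bacterial viability or growth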
Melanocortin receptor 4 [7] = target: T2, Melanocortin receptor 4 (Homo sapiens, UniProt P32245); experiment: inhibitors of MC4R cAMP signaling – cell-based, TR-FRET, biased antagonists, dose response (AID 602298); format: functional;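 note: antagonist potency against agonist-stimulated cAMP production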
Streptokinase A = target: T3, Streptokinase A (Streptococcus pyogenes serotype M1, UniProt P10520); experiment: viability-normalized secreted streptokinase activity reduction – plasminogen activation absorbance, OD405, dose response (AID 1914); format: functional, Streptococcus pyogenes M1 GAS;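 note: secreted streptokinase activity via plasminogen activation per viability signal from cell pellet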
T3 sequence (P10520 whole entry): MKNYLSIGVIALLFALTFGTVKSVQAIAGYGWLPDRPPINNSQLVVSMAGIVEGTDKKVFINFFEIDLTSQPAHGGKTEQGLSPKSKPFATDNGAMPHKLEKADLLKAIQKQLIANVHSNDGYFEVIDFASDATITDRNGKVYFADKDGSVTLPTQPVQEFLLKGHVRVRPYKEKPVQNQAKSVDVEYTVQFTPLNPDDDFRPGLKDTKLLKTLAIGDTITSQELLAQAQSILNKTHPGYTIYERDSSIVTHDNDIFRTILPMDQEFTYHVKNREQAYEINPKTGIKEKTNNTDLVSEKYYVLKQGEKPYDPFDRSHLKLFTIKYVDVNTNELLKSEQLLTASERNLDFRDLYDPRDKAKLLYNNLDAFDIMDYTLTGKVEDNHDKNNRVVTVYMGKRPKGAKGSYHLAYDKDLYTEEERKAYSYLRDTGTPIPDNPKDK

[8] = cAMP pathway inhibition in counterscreen cell line – TR-FRET cAMP detection, counter-screen for MC4R biased antagonist project, dose response (AID 602305); format: functional, cell-based;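 note: U2OS cells stimulated with forskolin near its EC80 as the cAMP inducer; potency is for inhibition of forskolin-stimulated cAMP signaling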
[9] = tested on: Streptococcus sp. 'group A'; experiment: Streptococcus pyogenes SK(-)GAS viability under kanamycin – luminescence, BacTiterGlo, confirmation, counter-screen for streptokinase expression inhibitor project, dose response (AID 1900); format: functional, organism-based; settings: Streptococcus sp. 'group A'
[10] = target: T4, Apoptotic protease-activating factor 1 (Homo sapiens, UniProt O14727); experiment: SAR analysis of small molecule Activators of Apaf-1 in a Fluorescent assay.; format: functional; settings: read-out: EC50_Mean;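 note: caspase-3 cleavage of fluorogenic Rh110 DEVD substrate downstream of apoptosome activation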
T4 sequence (O14727 whole entry): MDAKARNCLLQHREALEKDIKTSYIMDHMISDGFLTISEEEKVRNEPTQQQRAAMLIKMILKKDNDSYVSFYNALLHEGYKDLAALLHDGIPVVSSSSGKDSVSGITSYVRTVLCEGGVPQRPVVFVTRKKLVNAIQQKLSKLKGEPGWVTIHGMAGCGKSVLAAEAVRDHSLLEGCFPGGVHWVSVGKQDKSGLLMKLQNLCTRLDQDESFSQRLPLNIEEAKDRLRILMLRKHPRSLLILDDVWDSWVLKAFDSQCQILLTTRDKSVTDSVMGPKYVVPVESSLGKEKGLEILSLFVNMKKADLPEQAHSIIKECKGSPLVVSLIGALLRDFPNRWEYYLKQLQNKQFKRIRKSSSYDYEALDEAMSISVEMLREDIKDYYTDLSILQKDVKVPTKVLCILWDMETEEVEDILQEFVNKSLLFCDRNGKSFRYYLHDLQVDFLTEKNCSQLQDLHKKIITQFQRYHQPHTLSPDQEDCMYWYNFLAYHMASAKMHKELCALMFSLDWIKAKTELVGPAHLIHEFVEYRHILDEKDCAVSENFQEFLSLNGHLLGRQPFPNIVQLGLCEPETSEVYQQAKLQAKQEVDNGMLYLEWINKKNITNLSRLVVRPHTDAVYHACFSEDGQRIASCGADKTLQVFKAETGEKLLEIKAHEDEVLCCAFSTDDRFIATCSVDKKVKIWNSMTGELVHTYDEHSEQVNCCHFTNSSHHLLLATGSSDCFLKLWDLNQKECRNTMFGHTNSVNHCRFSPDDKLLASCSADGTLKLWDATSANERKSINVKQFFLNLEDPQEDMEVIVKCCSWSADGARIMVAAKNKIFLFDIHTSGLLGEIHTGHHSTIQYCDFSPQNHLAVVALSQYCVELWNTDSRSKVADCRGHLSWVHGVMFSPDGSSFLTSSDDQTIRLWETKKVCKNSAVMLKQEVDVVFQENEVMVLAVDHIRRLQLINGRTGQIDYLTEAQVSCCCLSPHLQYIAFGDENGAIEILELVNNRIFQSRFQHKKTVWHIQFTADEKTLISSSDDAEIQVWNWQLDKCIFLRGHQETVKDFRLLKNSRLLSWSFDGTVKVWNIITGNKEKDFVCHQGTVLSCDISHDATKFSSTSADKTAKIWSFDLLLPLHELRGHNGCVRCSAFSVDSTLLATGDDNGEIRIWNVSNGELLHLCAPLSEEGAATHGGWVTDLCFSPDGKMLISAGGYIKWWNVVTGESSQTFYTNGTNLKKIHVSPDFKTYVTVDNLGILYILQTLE

[11] = target: T5, Ubiquitin-conjugating enzyme E2 N (Homo sapiens, UniProt P61088); format: functional;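 note: Dose-response confirmation in a TR-FRET assay detecting UBC13-driven polyubiquitin chain formation, inhibition measured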
T5 sequence (P61088 whole entry): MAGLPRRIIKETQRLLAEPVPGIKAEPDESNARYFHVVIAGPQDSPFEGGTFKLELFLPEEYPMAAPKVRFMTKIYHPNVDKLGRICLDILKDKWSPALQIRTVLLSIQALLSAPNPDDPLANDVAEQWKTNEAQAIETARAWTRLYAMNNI

Melanocortin receptor 4 [12] = target: T2, Melanocortin receptor 4; format: functional, cell-based
Escherichia coli = experiment: microbe, parasite or virus in culture
[13] = target: Low molecular weight phosphotyrosine protein phosphatase (Homo sapiens, UniProt P24666); format: functional; settings: read-out: IC50_Mean;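 note: Dose-response confirmation assay measuring inhibition of LMPTP enzyme activity by fluorescence intensity read-out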
[14] = target: T6, Carboxy-terminal domain RNA polymerase II polypeptide A small phosphatase 1 (Homo sapiens, UniProt Q9GZU7); experiment: CTDSP1 inhibitors, concentration-response, biochemical, absorbance readout, ultra-high-throughput screen actives (AID 540297); format: functional
T6 sequence (Q9GZU7 whole entry): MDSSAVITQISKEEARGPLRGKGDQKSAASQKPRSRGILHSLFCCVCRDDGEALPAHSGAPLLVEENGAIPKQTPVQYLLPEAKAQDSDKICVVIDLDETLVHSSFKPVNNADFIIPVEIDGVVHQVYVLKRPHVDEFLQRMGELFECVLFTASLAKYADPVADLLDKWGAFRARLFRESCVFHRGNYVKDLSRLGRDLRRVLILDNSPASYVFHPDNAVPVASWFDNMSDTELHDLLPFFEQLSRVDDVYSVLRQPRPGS

T2 sequence (P32245 whole entry): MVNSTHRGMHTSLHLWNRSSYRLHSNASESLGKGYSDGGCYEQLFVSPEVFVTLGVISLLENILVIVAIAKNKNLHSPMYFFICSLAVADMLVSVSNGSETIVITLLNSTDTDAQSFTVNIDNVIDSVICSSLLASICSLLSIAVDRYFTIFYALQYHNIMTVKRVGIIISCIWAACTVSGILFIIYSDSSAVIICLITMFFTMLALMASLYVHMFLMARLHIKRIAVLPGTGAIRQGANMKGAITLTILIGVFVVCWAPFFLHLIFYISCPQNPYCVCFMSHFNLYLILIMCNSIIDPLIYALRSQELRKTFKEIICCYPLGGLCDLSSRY
Chain of 72 kDa type IV collagenase (P08253 whole entry): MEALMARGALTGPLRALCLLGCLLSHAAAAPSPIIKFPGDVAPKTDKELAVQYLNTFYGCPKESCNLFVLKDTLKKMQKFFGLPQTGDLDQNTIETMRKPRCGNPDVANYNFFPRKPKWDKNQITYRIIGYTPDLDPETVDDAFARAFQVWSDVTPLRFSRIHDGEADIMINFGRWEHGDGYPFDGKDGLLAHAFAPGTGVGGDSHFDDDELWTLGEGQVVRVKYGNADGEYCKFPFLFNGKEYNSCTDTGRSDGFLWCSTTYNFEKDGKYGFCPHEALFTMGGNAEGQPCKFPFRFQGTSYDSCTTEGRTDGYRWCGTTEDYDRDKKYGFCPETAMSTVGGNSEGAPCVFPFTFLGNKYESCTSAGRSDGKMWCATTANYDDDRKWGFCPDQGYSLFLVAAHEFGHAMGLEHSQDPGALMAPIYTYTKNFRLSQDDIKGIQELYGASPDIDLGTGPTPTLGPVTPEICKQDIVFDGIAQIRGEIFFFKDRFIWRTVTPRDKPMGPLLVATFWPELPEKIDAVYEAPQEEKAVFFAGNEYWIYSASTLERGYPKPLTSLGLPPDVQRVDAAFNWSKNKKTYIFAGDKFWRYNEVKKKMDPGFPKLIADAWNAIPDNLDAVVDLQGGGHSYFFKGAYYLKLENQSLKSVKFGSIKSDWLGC
Chain of 26S proteasome non-ATPase regulatory subunit 14 (O00487 whole entry): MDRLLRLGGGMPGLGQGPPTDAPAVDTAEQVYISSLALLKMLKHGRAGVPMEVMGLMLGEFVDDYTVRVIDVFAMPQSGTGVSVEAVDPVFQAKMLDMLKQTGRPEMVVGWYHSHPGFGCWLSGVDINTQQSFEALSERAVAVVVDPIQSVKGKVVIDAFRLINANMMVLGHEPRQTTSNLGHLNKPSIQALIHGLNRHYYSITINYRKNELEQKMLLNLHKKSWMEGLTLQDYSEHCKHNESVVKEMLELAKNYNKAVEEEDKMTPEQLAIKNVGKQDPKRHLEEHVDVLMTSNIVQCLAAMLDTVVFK
Chain of Eukaryotic translation initiation factor 4E (P63073 whole entry): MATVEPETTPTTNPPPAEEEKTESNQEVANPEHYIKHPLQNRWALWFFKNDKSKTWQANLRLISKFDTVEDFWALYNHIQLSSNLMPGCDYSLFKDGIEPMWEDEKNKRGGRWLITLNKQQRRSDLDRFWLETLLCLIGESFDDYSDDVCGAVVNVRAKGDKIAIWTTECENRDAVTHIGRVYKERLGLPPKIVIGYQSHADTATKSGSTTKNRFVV
Chain of Genome polyprotein (P29990 2492-3391 limits assumed): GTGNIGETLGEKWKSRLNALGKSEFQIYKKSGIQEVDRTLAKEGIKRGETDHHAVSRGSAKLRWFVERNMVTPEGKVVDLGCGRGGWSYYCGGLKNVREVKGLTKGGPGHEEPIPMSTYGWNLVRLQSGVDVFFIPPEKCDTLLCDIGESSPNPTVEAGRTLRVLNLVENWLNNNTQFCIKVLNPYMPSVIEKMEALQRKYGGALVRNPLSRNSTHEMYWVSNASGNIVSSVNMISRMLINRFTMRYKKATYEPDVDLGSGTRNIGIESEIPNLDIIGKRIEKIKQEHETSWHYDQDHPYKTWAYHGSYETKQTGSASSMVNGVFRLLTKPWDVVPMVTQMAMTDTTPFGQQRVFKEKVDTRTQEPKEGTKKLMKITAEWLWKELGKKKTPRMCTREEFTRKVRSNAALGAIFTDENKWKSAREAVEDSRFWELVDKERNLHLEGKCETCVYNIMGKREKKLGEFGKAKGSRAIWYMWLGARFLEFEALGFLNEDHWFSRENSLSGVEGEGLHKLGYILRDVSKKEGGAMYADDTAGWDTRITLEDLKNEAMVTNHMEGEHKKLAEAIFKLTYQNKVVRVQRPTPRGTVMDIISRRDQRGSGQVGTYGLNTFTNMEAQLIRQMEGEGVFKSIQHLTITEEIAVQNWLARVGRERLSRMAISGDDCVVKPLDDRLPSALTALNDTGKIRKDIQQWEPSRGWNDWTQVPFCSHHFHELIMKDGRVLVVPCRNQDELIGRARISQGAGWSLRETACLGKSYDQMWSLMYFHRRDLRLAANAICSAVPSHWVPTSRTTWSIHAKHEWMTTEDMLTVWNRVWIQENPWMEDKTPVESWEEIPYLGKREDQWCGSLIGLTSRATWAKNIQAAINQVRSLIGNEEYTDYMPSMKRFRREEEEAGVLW
Chain of Induced myeloid leukemia cell differentiation protein Mcl-1 (Q07820 whole entry): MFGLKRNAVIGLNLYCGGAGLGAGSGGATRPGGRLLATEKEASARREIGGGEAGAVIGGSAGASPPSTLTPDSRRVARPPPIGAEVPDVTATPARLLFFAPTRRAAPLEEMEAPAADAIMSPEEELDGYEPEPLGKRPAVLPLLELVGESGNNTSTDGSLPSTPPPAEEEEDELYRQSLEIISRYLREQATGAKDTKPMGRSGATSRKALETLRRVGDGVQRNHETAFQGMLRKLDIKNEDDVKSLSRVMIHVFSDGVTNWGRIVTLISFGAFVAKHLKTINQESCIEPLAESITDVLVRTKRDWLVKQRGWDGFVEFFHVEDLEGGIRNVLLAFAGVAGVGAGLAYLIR
Chain of Low molecular weight phosphotyrosine protein phosphatase (P24666 whole entry, the tested form may be a part): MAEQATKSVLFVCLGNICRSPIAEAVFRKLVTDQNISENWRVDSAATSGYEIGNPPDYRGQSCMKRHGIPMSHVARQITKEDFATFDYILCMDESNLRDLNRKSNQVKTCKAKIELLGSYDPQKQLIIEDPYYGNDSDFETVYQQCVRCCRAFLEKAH
Chain of DNA (cytosine-5)-methyltransferase 1 (P26358 whole entry): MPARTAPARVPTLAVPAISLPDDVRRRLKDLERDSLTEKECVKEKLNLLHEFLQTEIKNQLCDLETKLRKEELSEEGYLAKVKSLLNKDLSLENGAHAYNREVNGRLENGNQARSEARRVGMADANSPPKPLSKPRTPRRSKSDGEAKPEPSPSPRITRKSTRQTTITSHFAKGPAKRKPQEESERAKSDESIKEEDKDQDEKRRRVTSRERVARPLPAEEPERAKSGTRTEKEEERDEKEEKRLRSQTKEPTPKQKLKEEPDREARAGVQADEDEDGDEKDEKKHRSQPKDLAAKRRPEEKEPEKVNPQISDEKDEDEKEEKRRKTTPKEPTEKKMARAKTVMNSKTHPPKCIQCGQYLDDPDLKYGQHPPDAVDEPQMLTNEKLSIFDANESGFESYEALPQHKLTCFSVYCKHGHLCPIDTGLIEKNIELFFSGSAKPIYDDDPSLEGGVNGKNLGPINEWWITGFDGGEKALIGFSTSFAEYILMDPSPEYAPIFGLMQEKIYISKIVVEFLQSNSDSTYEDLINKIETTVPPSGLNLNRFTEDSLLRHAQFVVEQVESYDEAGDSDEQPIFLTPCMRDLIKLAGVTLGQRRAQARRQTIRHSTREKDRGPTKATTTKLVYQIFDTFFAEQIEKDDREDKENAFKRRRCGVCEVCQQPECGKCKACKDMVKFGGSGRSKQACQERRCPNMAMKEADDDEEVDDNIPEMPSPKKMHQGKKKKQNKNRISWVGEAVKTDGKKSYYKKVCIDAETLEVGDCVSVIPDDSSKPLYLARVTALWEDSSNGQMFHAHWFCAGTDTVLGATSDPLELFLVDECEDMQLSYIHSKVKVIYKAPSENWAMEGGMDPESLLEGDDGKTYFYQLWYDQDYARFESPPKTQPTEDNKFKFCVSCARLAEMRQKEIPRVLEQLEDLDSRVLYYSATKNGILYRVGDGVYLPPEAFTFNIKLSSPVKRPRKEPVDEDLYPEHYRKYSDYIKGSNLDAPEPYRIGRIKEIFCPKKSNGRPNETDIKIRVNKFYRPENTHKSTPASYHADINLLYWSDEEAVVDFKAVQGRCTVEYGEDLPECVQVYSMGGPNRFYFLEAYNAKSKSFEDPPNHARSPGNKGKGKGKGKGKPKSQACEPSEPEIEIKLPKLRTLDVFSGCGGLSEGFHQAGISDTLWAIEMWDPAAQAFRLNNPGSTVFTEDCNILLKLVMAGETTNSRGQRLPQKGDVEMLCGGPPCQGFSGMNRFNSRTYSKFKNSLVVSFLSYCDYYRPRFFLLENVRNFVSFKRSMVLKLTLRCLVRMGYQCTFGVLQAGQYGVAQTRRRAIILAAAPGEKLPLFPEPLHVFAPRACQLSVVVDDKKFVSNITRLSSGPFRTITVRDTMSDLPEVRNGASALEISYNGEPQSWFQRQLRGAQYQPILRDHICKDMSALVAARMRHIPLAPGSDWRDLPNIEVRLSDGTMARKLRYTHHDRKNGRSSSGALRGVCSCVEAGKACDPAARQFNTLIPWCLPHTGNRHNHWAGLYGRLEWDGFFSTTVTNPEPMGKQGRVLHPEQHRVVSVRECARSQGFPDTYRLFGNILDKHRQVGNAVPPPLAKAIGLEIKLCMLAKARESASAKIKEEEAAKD
Chain of Aurora kinase B (Q96GD4 whole entry): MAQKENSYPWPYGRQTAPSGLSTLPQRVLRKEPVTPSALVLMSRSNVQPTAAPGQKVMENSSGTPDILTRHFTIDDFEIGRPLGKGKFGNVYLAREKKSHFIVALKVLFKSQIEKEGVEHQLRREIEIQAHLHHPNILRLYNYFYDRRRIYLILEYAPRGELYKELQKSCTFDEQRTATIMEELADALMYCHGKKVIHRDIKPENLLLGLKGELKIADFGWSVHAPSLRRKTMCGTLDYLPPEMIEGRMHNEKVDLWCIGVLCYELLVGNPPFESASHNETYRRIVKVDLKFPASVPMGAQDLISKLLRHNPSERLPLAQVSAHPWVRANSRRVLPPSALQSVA

SMILES: O=C1NN(c2ccc(Cl)cc2)C(=O)/C1=C\c1ccc(-c2cccc(C(=O)O)c2)o1
- IC50 [1]: 50 µM (inactive)
- IC50 (Prothrombin): 19.8 µM (active)
- IC50 (Large T antigen): 27.1 µM (active)
- IC50 [2]: 56.7 µM (active)
- IC50 [3]: 7.39 µM (active)
- AC50 [4]: > 20 µM (inactive)
- IC50 [5]: 3.21 µM (active)
- IC50 (Genome polyprotein): 77.3 µM (active)
- IC50 [6]: 10.9 µM (active)

SMILES: COCCOC1CCC(n2nc(-c3ccc(Nc4nc5cc(Cl)cc(C)c5o4)c(F)c3)c3c(N)ncnc32)CC1 (configuration not stated)
- Ki (Aurora kinase A): 0.126 µM (active)
- Ki (Aurora kinase B): 0.00794 µM (active)

SMILES: COc1ccc(-c2oc3ccc(N4CCOCC4)cc3c2C#CC2(O)CCCCC2)cc1
- EC50 (Streptococcus): 8.25 µM (active)
- IC50 (Melanocortin receptor 4 [7]): > 64.6 µM (inactive)
- EC50 (Streptokinase A): > 150 µM (not active)
- IC50 [8]: > 64.6 µM (inactive)
- EC50 [9]: 3.68 µM (active)

SMILES: CC(CNc1ccccc1Cl)C(=O)O (configuration not stated)
- EC50 [10]: > 100 µM (inactive)

SMILES: CC(C)[C@H](CN1CCC[C@H]1CN1C(N)=NC[C@H]1C(C)C)N1C[C@@H](Cc2ccccc2)N(CCCC2CCCC2)C1=N
- IC50 (Melanocortin receptor 4 [7]): 17.7 µM (inactive)
- IC50 [11]: > 20 µM (inactive)
- IC50 [8]: > 64.5 µM (inactive)

SMILES: O=C(CSc1ccccc1)Nc1nnc(/C=C/c2ccccc2)s1
- EC50 (Melanocortin receptor 4 [12]): > 89.2 µM (inactive)

SMILES: CCn1cc(C(=O)O)c(=O)c2cc(F)c(N3CCN(C(=S)NC(=O)c4ccccc4C)CC3)cc21
- AC50 (Escherichia coli): 8.2 µM (active)
- IC50 [13]: 7.19 µM (active)

SMILES: Cc1ccc(-n2nnc3c(=O)n(CC(=O)NCc4ccccc4)cnc32)cc1
- IC50 (Prothrombin): > 100 µM (inactive)
- IC50 [2]: 12.7 µM (active)
- IC50 [14]: 5.33 µM (active)
- IC50 [6]: 24.8 µM (active)
